Measurements: patent US20080305978A1, “Cleaning compositions containing a hydrophilic fragrance” (S.C. Johnson & Son, Inc., priority 2007, published 2008)

Assays:
[1] = Characteristics of fragrance components in words (vapor pressure, water solubility, oxidation); format: physicochemical
Source text: This test evaluated properties of fragrances with different levels of water solubility with regard to their effect on contributing to streaking/blooming.

[2] = Table 5; cited from earlier work

| SMILES | Characteristics: oxidation ([1]; Table 5, in words) | Characteristics: vapor pressure ([1]; Table 5, in words) | Characteristics: water solubility ([1]; Table 5, in words) | Water Solubility ([1]; Table 6, in words) | Vapor Pressure mm/Hg [2] | Water Solubility ([1]; text b58, in words) |
| --- | --- | --- | --- | --- | --- | --- |
| CC(C=O)Cc1ccc(C(C)(C)C)cc1 (stereo not drawn) [Lilial] | (2) Easily oxidized | (1) Low vapor | (3) Low water | Low | 0.004 mm/Hg |  |
| CCOC(=O)CC1(C)OCCO1 [Applinal = Fructone, Applinal] |  |  | High water | High |  | high |
| C=CC(C)CCCC(C)(C)O (stereo not drawn) [Dihydromyrcenol] |  | (1) Fairly high | (2) Reasonable | Medium | 0.7 mm/Hg |  |
